The record followed here is patent publication US20200405697A1, “Antitumor Agent” (Taiho Pharmaceutical Co., Ltd, priority 2017, published 2020).

The target of this assay is T1, human RNR (histidine tagged human M1 and human M2 proteins) (Homo sapiens, UniProt P23921).
T1 construct: made in house; host or cells: Escherichia coli
T1 sequence (P23921 1-792): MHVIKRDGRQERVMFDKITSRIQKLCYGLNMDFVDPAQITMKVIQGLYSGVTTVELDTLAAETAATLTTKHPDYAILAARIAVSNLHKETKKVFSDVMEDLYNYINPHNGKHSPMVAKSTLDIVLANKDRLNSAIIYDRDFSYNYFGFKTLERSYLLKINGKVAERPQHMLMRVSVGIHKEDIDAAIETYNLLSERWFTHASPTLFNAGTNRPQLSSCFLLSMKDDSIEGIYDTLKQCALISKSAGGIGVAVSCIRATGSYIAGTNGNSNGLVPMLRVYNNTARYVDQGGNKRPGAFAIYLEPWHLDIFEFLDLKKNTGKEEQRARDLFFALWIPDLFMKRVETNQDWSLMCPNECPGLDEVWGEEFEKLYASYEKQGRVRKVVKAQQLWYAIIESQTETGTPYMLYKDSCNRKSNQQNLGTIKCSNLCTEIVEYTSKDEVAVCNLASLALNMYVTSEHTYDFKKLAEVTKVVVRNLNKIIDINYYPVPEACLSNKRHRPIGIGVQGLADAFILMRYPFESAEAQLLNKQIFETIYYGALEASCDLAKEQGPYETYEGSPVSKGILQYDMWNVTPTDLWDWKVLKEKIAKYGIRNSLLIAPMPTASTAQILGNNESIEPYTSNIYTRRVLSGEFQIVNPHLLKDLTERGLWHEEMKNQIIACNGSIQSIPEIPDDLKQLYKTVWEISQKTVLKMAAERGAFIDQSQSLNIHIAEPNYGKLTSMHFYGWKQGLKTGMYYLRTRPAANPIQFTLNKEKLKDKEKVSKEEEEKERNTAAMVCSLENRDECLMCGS
The experiment in a line: Human RNR inhibition effect (dCDP formation from CDP). In kind it is biochemical. As to conditions: 10 μM CDP, 37° C. for 30 minutes, read-out: RNR inhibitory activity IC50. The protocol:
The inhibitory activity against the ribonucleotide reduction reaction (RNR inhibitory activity) of the Example compound was determined by measuring the formation of deoxycytidine diphosphate (hereinafter referred to as dCDP) from cytidine diphosphate (hereinafter referred to as CDP) by the following method.
Human M1 subunit (isoform 1, GenBank accession No: NM_001033), to which a histidine tag is fused at the amino terminus, and human M2 subunit (mutant lacking amino terminal 59 amino acids of isoform 2, GenBank accession No: NM_001034), to which a histidine tag is fused, were overexpressed in Escherichia coli and were solubilized after collection, and histidine tagged human M1 and histidine tagged human M2 proteins were purified on a nickel chelate column. A mixture of the histidine tagged human M1 and histidine tagged human M2 proteins was used as RNR in the ribonucleotide reduction reaction. [to]
First, Example compounds were serially diluted with DMSO. Next, human M1 protein and human M2 protein were added to a 0.02% aqueous albumin solution derived from fetal bovine serum, a DMSO solution of the Example compound or the control DMSO solution (final concentration of DMSO was 1%) was added, and the mixture was allowed to stand for 20 minutes. Thereafter, the reaction buffer [50 mM HEPES buffer (pH 7.2) at the final concentration, 4 mM magnesium acetate at the final concentration, 100 mM potassium chloride at the final concentration, 6 mM dithiothreitol at the final concentration, 2 mM adenosine triphosphate at the final concentration, 0.24 mM nicotinamide adenine dinucleotide phosphate at final concentration] and 10 μM CDP at the final concentration were added and incubated at 37° C. for 30 minutes to perform ribonucleotide reduction reaction. Immediately after the reaction, the reaction was stopped by heating at 100° C. for 15 minutes, followed by centrifugation at 10,000 rpm for 10 minutes. After the centrifugation, a portion (5 μL) of the resulting supernatant was analyzed with a high performance liquid chromatography (Shimadzu Corporation, Prominence) using Shim-pack XR-ODS (manufactured by Shimadzu GLC Co., 3.0×100 mm).

Molecules are shown by their SMILES.

`COc1cc(Cl)ccc1S(=O)(=O)N[C@H](c1n[nH]c(=O)o1)C(O)c1c(F)ccc(C)c1C` (mixture of isomers) [Example 290, 4-chloro-N-((1S)-2-(6-fluoro-2,3-dimethylphenyl)-2-hydroxy-1-(5-oxo-4,5-dihydro-1,3,4-oxadiazol-2-yl)ethyl)-2-methoxybenzenesulfonamide]: the IC50 stood at 0.84 µM.

Regarding `C[C@H](c1c(F)ccc2ccccc12)[C@H](NS(=O)(=O)c1ccc(Cl)c2c1OCCC2F)c1n[nH]c(=O)o1` (mixture of isomers) [Example 292, 5-chloro-4-fluoro-N-((1S,2R)-2-(2-fluoronaphthalen-1-yl)-1-(5-oxo-4,5-dihydro-1,3,4-oxadiazol-2-yl)propyl)chroman-8-sulfonamide], the IC50 came out at 0.16 µM.

As for `Cc1c(Cl)ccc(F)c1[C@@H](C)[C@H](NS(=O)(=O)c1ccc(Cl)c2c1OCCC2(C)N)c1n[nH]c(=O)o1` (mixture of isomers) [Example 328, 4-amino-5-chloro-N-((1S,2R)-2-(3-chloro-6-fluoro-2-methylphenyl)-1-(5-oxo-4,5-dihydro-1,3,4-oxadiazol-2-yl)propyl)-4-methylchroman-8-sulfonamide], the IC50 was 0.11 µM.

As for `[2H]C([2H])([2H])C1(O)CCOc2c(S(=O)(=O)N[C@H](c3n[nH]c(=O)o3)[C@H](C)c3c(F)ccc(C)c3C)ccc(Cl)c21` (single isomer, unassigned) [Example 200B], the IC50 was determined as 0.08 µM.

Regarding `Cc1ccc(F)c([C@@H](C)[C@H](NS(=O)(=O)c2ccc(Cl)c3c2OCCC3(C)O)c2n[nH]c(=O)o2)c1C` (single isomer, unassigned) [Example 207A], the IC50 worked out at 0.13 µM.

As for `Cc1ccc(F)c([C@@H](C)[C@H](NS(=O)(=O)c2ccc(Cl)c3c2OCCC3(C)O)c2n[nH]c(=O)o2)c1C` (single isomer, unassigned) [Example 207B], the half-inhibitory concentration (IC50) stood at 0.09 µM.

`COc1c(S(=O)(=O)N[C@H](c2n[nH]c(=O)o2)[C@H](C)c2c(F)ccc(C)c2C)ccc(Cl)c1C(C)O` (single isomer, unassigned) [Example 208A]: the half-maximal inhibitory concentration (IC50) amounted to 0.1 µM.

For the compound `COc1c(S(=O)(=O)N[C@H](c2n[nH]c(=O)o2)[C@H](C)c2c(F)ccc(C)c2C)ccc(Cl)c1C(C)O` (single isomer, unassigned) [Example 208B], the 50% inhibitory concentration (IC50) came to 0.06 µM.

In the case of `Cc1c(Cl)ccc(F)c1[C@@H](C)[C@H](NS(=O)(=O)c1ccc(Cl)c2c1OCCC2(C)O)c1n[nH]c(=O)o1` (single isomer, unassigned) [Example 209B], the half-inhibitory concentration (IC50) came out at 0.18 µM.

As to `Cc1ccc(F)c([C@@H](C)[C@H](NS(=O)(=O)c2ccc(Cl)c3c2OCCC3(O)C(F)(F)F)c2n[nH]c(=O)o2)c1C` (single isomer, unassigned) [Example 220A], the 50% inhibitory concentration (IC50) amounted to 0.06 µM.

For `Cc1ccc(F)c([C@@H](C)[C@H](NS(=O)(=O)c2ccc(Cl)c3c2OCCC3(O)C(F)(F)F)c2n[nH]c(=O)o2)c1C` (single isomer, unassigned) [Example 220B], the IC50 turned out to be 0.08 µM.

For `Cc1c(Br)ccc(F)c1[C@@H](C)[C@H](NS(=O)(=O)c1ccc(Cl)c2c1OCCC2(C)O)c1n[nH]c(=O)o1` (single isomer, unassigned) [Example 222B], the IC50 was 0.06 µM.

With `Cc1ccc(F)c([C@@H](C)[C@H](NS(=O)(=O)c2ccc(F)c3c2OCCC3(C)O)c2n[nH]c(=O)o2)c1C` (single isomer, unassigned) [Example 224A], the concentration for half-maximal inhibition (IC50) was 0.09 µM.

`Cc1ccc(F)c([C@@H](C)[C@H](NS(=O)(=O)c2ccc(F)c3c2OCCC3(C)O)c2n[nH]c(=O)o2)c1C` (single isomer, unassigned) [Example 224B]: the 50% inhibitory concentration (IC50) is 0.1 µM.

As for `[2H]C([2H])([2H])C1(O)CCOc2c(S(=O)(=O)N[C@H](c3n[nH]c(=O)o3)[C@H](C)c3c(F)ccc(Br)c3C)ccc(Cl)c21` (single isomer, unassigned) [Example 226A], the IC50 was 0.05 µM.

As for `[2H]C([2H])([2H])C1(O)CCOc2c(S(=O)(=O)N[C@H](c3n[nH]c(=O)o3)[C@H](C)c3c(F)ccc(Br)c3C)ccc(Cl)c21` (single isomer, unassigned) [Example 226B], the IC50 stood at 0.07 µM.

Consider `Cc1c(Br)ccc(F)c1[C@@H](C)[C@H](NS(=O)(=O)c1ccc(F)c2c1OCCC2(C)O)c1n[nH]c(=O)o1` (single isomer, unassigned) [Example 227A], for which the IC50 amounted to 0.05 µM.

Regarding `Cc1c(Br)ccc(F)c1[C@@H](C)[C@H](NS(=O)(=O)c1ccc(F)c2c1OCCC2(C)O)c1n[nH]c(=O)o1` (single isomer, unassigned) [Example 227B], the IC50 came out at 0.09 µM.

For the compound `[2H]C([2H])([2H])C1(O)CCOc2c(S(=O)(=O)N[C@H](c3n[nH]c(=O)o3)[C@H](C)c3c(F)ccc(Cl)c3C)ccc(Cl)c21` (single isomer, unassigned) [Example 228B], the IC50 amounted to 0.14 µM.

Turning to `Cc1c(Cl)ccc(F)c1[C@@H](C)[C@H](NS(=O)(=O)c1ccc(F)c2c1OCCC2(C)O)c1n[nH]c(=O)o1` (single isomer, unassigned) [Example 229A], the IC50 was determined as 0.06 µM.

On to `Cc1c(Cl)ccc(F)c1[C@@H](C)[C@H](NS(=O)(=O)c1ccc(F)c2c1OCCC2(C)O)c1n[nH]c(=O)o1` (single isomer, unassigned) [Example 229B], for which the half-inhibitory concentration (IC50) stood at 0.11 µM.

As to `Cc1ccc(F)c([C@@H](C)[C@H](NS(=O)(=O)c2ccc(F)c3c2OCCC3O)c2n[nH]c(=O)o2)c1C` (single isomer, unassigned) [Example 230A], the half-inhibitory concentration (IC50) was determined as 0.12 µM.

With `Cc1ccc(F)c([C@@H](C)[C@H](NS(=O)(=O)c2ccc(F)c3c2OCCC3O)c2n[nH]c(=O)o2)c1C` (single isomer, unassigned) [Example 230B], the IC50 came out at 0.05 µM.

Take `C[C@H](c1c(F)ccc2ccccc12)[C@H](NS(=O)(=O)c1ccc(Cl)c2c1OCCC2O)c1n[nH]c(=O)o1` (single isomer, unassigned) [Example 234A]: the IC50 turned out to be 0.31 µM.

Take `Cc1ccc(F)c([C@@H](C)[C@H](NS(=O)(=O)c2ccc(Cl)c3c2OCCC3O)c2n[nH]c(=O)o2)c1C` (single isomer, unassigned) [Example 235B]: the IC50 came out at 0.07 µM.

In the case of `Cc1ccc(F)c([C@@H](C)[C@H](NS(=O)(=O)c2cccc3c2OC(C)(C)CC3O)c2n[nH]c(=O)o2)c1C` (single isomer, unassigned) [Example 237A], the IC50 worked out at 0.29 µM.

On to `Cc1c(Cl)ccc(F)c1[C@@H](C)[C@H](NS(=O)(=O)c1ccc(Cl)c2c1OCCC2O)c1n[nH]c(=O)o1` (single isomer, unassigned) [Example 238A], for which the IC50 turned out to be 0.11 µM.

Regarding `CCc1ccc(F)c([C@@H](C)[C@H](NS(=O)(=O)c2ccc(Cl)c3c2OCCC3O)c2n[nH]c(=O)o2)c1C` (single isomer, unassigned) [Example 239A], the 50% inhibitory concentration (IC50) was found to be 0.2 µM.

As to `Cc1c(Br)ccc(F)c1[C@@H](C)[C@H](NS(=O)(=O)c1ccc(Cl)c2c1OCCC2O)c1n[nH]c(=O)o1` (single isomer, unassigned) [Example 243A], the IC50 stood at 0.07 µM.

For `Cc1c(Br)ccc(F)c1[C@@H](C)[C@H](NS(=O)(=O)c1ccc(Cl)c2c1OCCC2O)c1n[nH]c(=O)o1` (single isomer, unassigned) [Example 243B], the IC50 turned out to be 0.1 µM.

On to `Cc1ccc(F)c([C@@H](C)[C@H](NS(=O)(=O)c2ccc(C(F)(F)F)c3c2OCCC3O)c2n[nH]c(=O)o2)c1C` (single isomer, unassigned) [Example 244A], for which the IC50 amounted to 0.09 µM.

Regarding `Cc1ccc(F)c([C@@H](C)[C@H](NS(=O)(=O)c2ccc(C(F)(F)F)c3c2OCCC3O)c2n[nH]c(=O)o2)c1C` (single isomer, unassigned) [Example 244B], the half-inhibitory concentration (IC50) is 0.22 µM.
